Measurements as given in PubChem BioAssay (NCI).
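Dose response: 5 concentrations. Exposure: 48 h. Format: 96-well plates. Endpoint: linear interpolation; highest concentration if not reached. At the TGI there is no net growth.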

Tests used:
Test in all cases: NCI-60 cell line screen, 48 h
OVCAR-4 ovarian = tested on: OVCAR-4 ovarian
UACC-62 melanoma = tested on: UACC-62 melanoma
KM12 colon = tested on: KM12 colon
LOX IMVI melanoma = tested on: LOX IMVI melanoma
UACC-257 melanoma = tested on: UACC-257 melanoma
K-562 leukemia = tested on: K-562 leukemia
NCI/ADR-RES ovarian = tested on: NCI/ADR-RES ovarian
SN12C renal = tested on: SN12C renal
U251 CNS = tested on: U251 CNS
SK-MEL-5 melanoma = tested on: SK-MEL-5 melanoma
HS 578T breast = tested on: HS 578T breast
MOLT-4 leukemia = tested on: MOLT-4 leukemia
MDA-N = tested on: MDA-N
SNB-19 CNS = tested on: SNB-19 CNS
MDA-MB-231 breast = tested on: MDA-MB-231 breast
HL-60(TB) leukemia = tested on: HL-60(TB) leukemia
UO-31 renal = tested on: UO-31 renal
SF-539 CNS = tested on: SF-539 CNS
PC-3 prostate = tested on: PC-3 prostate
SK-OV-3 ovarian = tested on: SK-OV-3 ovarian
COLO 205 colon = tested on: COLO 205 colon
SNB-75 CNS = tested on: SNB-75 CNS
SF-295 CNS = tested on: SF-295 CNS
SF-268 CNS = tested on: SF-268 CNS
HCT-15 colon = tested on: HCT-15 colon
BT-549 breast = tested on: BT-549 breast
NCI-H460 lung = tested on: NCI-H460 lung
SK-MEL-2 melanoma = tested on: SK-MEL-2 melanoma
HT29 colon = tested on: HT29 colon
EKVX NSCLC = tested on: EKVX NSCLC
MCF7 breast = tested on: MCF7 breast
HCC-2998 colon = tested on: HCC-2998 colon
SK-MEL-28 melanoma = tested on: SK-MEL-28 melanoma
SW-620 colon = tested on: SW-620 colon
T-47D breast = tested on: T-47D breast
ACHN renal = tested on: ACHN renal
HCT-116 colon = tested on: HCT-116 colon
OVCAR-8 ovarian = tested on: OVCAR-8 ovarian
786-0 renal = tested on: 786-0 renal
A549 NSCLC = tested on: A549 NSCLC
RXF 393 renal = tested on: RXF 393 renal
RPMI-8226 leukemia = tested on: RPMI-8226 leukemia
NCI-H23 lung = tested on: NCI-H23 lung
CAKI-1 renal = tested on: CAKI-1 renal
CCRF-CEM leukemia = tested on: CCRF-CEM leukemia
TK-10 renal = tested on: TK-10 renal
DU-145 prostate = tested on: DU-145 prostate
MDA-MB-435 = tested on: MDA-MB-435
A498 renal = tested on: A498 renal
HOP-92 NSCLC = tested on: HOP-92 NSCLC
NCI-H226 lung = tested on: NCI-H226 lung
MALME-3M melanoma = tested on: MALME-3M melanoma
HOP-62 NSCLC = tested on: HOP-62 NSCLC
IGROV1 ovarian = tested on: IGROV1 ovarian
NCI-H522 lung = tested on: NCI-H522 lung
OVCAR-3 ovarian = tested on: OVCAR-3 ovarian
M14 melanoma = tested on: M14 melanoma
OVCAR-5 ovarian = tested on: OVCAR-5 ovarian

Measured: TGI

O=C(CN1C(=O)c2ccccc2C1=O)OCC1CCCN2CCCCC12 (stereo unspecified)
> 100 µM: OVCAR-4 ovarian | UACC-62 melanoma | KM12 colon | LOX IMVI melanoma | UACC-257 melanoma | K-562 leukemia | NCI/ADR-RES ovarian | SN12C renal | U251 CNS | SK-MEL-5 melanoma | HS 578T breast | MOLT-4 leukemia | MDA-N | SNB-19 CNS | MDA-MB-231 breast | HL-60(TB) leukemia | UO-31 renal | SF-539 CNS | PC-3 prostate | SK-OV-3 ovarian | COLO 205 colon | SNB-75 CNS | SF-295 CNS | SF-268 CNS | HCT-15 colon | BT-549 breast | NCI-H460 lung | SK-MEL-2 melanoma | HT29 colon | EKVX NSCLC | MCF7 breast | HCC-2998 colon | SK-MEL-28 melanoma | SW-620 colon | T-47D breast | ACHN renal | HCT-116 colon | OVCAR-8 ovarian | 786-0 renal | A549 NSCLC | RXF 393 renal | RPMI-8226 leukemia | NCI-H23 lung | CAKI-1 renal | CCRF-CEM leukemia | TK-10 renal | DU-145 prostate | MDA-MB-435 | A498 renal | HOP-92 NSCLC | NCI-H226 lung | MALME-3M melanoma

Cc1ccc(C(=O)Nc2ccc(CP(=O)(O)O)cc2)cc1NC(=O)Nc1cc(C(=O)Nc2ccc(CP(=O)(O)O)cc2)ccc1C
> 100 µM: OVCAR-4 ovarian | UACC-62 melanoma | KM12 colon | LOX IMVI melanoma | UACC-257 melanoma | HOP-62 NSCLC | NCI/ADR-RES ovarian | SN12C renal | U251 CNS | SK-MEL-5 melanoma | HS 578T breast | MOLT-4 leukemia | MDA-N | MDA-MB-231 breast | HL-60(TB) leukemia | UO-31 renal | SF-539 CNS | PC-3 prostate | SK-OV-3 ovarian | COLO 205 colon | IGROV1 ovarian | SNB-75 CNS | SF-295 CNS | SF-268 CNS | NCI-H522 lung | HCT-15 colon | BT-549 breast | NCI-H460 lung | SK-MEL-2 melanoma | HT29 colon | EKVX NSCLC | MCF7 breast | HCC-2998 colon | SK-MEL-28 melanoma | SW-620 colon | OVCAR-3 ovarian | T-47D breast | HCT-116 colon | OVCAR-8 ovarian | 786-0 renal | M14 melanoma | A549 NSCLC | RXF 393 renal | RPMI-8226 leukemia | NCI-H23 lung | CAKI-1 renal | CCRF-CEM leukemia | TK-10 renal | DU-145 prostate | MDA-MB-435 | A498 renal | NCI-H226 lung | OVCAR-5 ovarian | MALME-3M melanoma
